In US4966900A, “Cephalosporin β-lactam compound and medicinal composition” (priority 1986, dated 1990):
Values after ≈ are worked out from the molar mass of the structure shown. Structures can show the parent of a compound that is named as a salt.

Assays:
E. colacae GN7471 = assay: MIC
C. freundii 1R523 = assay: MIC; settings: Citrobacter freundii, 1R523
E. cloacae 908RN = assay: MIC; settings: Enterobacter cloacae
E. cloacae 5D52-2 = assay: MIC; settings: Enterobacter cloacae, 5D522
P. aeruginosa 5D58-1 = assay: MIC; settings: Pseudomonas aeruginosa, 5D581, P. aeruginosa 5D58-1
E. coli GN5482 = assay: MIC; settings: Escherichia coli, GN5482, E. coli GN5482
S. aureus Smith = assay: MIC; settings: Staphylococcus aureus
in vivo = assay: in vivo; parameters: species or system Macaco; settings: monkey, 20 mg/kg
Protocol: Each of 20 mg/kg of the compounds obtained in Example 2, Example 25 and Example 28 was administered parenterally to Macaco and the half-time in blood was measured.
The concentrations of the compounds were measured according to HPLC method. Novapack C18 or Microbondapack C18 (trade name, produced by Waters Co.) was used as a column. Further, cefpiramide was used as a control drug.

C. freundii 1R526 = assay: MIC; settings: Citrobacter freundii, 1R526
P. maltophilia OF247 = assay: MIC; settings: Stenotrophomonas maltophilia
E. cloacae 1Y247 = assay: MIC; type: cell-based; settings: Enterobacter cloacae, Table 6, read-out: MIC
Protocol: (§1) The minimum inhibition concentrations (MIC) of the compounds obtained in the respective examples described above were measured according to the standard method of Japanese Chemotherapy Association.

S. aureus IAA498 = assay: MIC; type: cell-based; settings: Staphylococcus aureus
Protocol: as §1

C. freundii 5D60-1 = assay: MIC; settings: Citrobacter freundii, 5D601
C. freundii 1U589 = assay: MIC; settings: Citrobacter freundii, 1U589
P. vulgaris GN7919 = assay: MIC; settings: Proteus vulgaris, GN7919
C. freundii 1U692 = assay: MIC; settings: Citrobacter freundii, 1U692
C. freundii 1R524 = assay: MIC; settings: Citrobacter freundii, 1R524
S. marcescens GN10857 = assay: MIC; settings: Serratia marcescens, GN10857, S. marcescens GN10857
P. aeruginosa 4au542 = assay: MIC; settings: Pseudomonas aeruginosa, 4AU542, P. aeruginosa 4au542
C. freundii 1R527 = assay: MIC; settings: Citrobacter freundii, 1R527
E. cloacae 1V25 = assay: MIC; settings: Enterobacter cloacae
C. freundii GN7391 = assay: MIC; settings: Citrobacter freundii, GN7391, C. freundii GN7391
P. cepacia OF189 = assay: MIC; settings: Burkholderia cepacia, OF189, P. cepacia OF189
P. aeruginosa GN10362 = assay: MIC; settings: Pseudomonas aeruginosa, GN10362
K. pneumoniae 4at521 = assay: MIC; settings: Klebsiella pneumoniae, 4AT521
E. cloacae 5D63-2 = assay: MIC; settings: Enterobacter cloacae, 5D632
E. coli ML4707 = assay: MIC; settings: Escherichia coli, ML4707, E. coli ML4707
E. cloacae 1V247 = assay: MIC; type: cell-based; settings: Enterobacter cloacae, Table 8
Protocol: as §1

| Compound | MIC (C. freundii 1R523) | MIC (E. cloacae 5D52-2) | MIC (C. freundii 1R526) | MIC (C. freundii 5D60-1) | MIC (C. freundii 1U589) | MIC (P. vulgaris GN7919) | MIC (C. freundii 1U692) | MIC (C. freundii 1R524) | MIC (C. freundii 1R527) | MIC (E. cloacae 1V25) | MIC (P. aeruginosa GN10362) | MIC (K. pneumoniae 4at521) | MIC (E. cloacae 5D63-2) | MIC (E. colacae GN7471; Table 7) | MIC (E. cloacae 908RN; E. colacae 908RN, Table 7) | MIC (P. aeruginosa 5D58-1; Table 7) | MIC (E. coli GN5482; Table 7) | MIC (S. aureus Smith; Table 7) | MIC (P. maltophilia OF247; Table 7) | MIC (E. cloacae 1V247) | other results |
| --- | --- | --- | --- | --- | --- | --- | --- | --- | --- | --- | --- | --- | --- | --- | --- | --- | --- | --- | --- | --- | --- |
| Cc1cc(SCC2=C(C(=O)O)N3C(=O)C(NC(=O)C(=NOC(C)(C)C(=O)NNC(=O)c4ccc(O)c(O)c4)c4csc(N)n4)C3SC2)n2ncc(C(=O)O)c2n1 (stereo not drawn) [Example 25, 7-{2-[2-amino-1,3-thiazol-4-yl]-2-[1-(3-(3,4-dihydroxybenzoyl)carbazoyl)-1-methylethoxyimino]acetamide}-3-[(3-carboxy-5-methylpyrazolo[1,5-a]pyrimidin-7-yl)thiomethyl]-3-cephem-4-carboxylic acid.hydrochloride] | 0.2 µg/mL | 0.39 µg/mL | 0.2 µg/mL | 0.78 µg/mL | 0.39 µg/mL | 0.39 µg/mL | 0.39 µg/mL | 0.1 µg/mL | 0.1 µg/mL | 6.25 µg/mL | 0.025 µg/mL | < 0.006 µg/mL | 0.39 µg/mL | – | – | – | – | – | – | – | MIC (E. colacae GN7471; Table 5): 3.13 µg/mL; MIC (E. cloacae 908RN; E. cloacae 908RN, Table 6): 3.13 µg/mL; MIC (E. cloacae 908RN; E. colacae 908RN, Table 5): 1.56 µg/mL; MIC (P. aeruginosa 5D58-1; Table 5): 0.05 µg/mL; MIC (E. coli GN5482; Table 5): < 0.006 µg/mL; MIC (S. aureus Smith; Table 5): 6.25 µg/mL; half-life (in vivo): 4 h; MIC (P. maltophilia OF247; Table 5): 0.1 µg/mL; MIC (E. cloacae 1Y247): 12.5 µg/mL; MIC (S. aureus IAA498; Table 5): 12.5 µg/mL; MIC (S. marcescens GN10857; Table 5): 0.1 µg/mL; MIC (P. aeruginosa 4au542; Table 5): 0.1 µg/mL; MIC (C. freundii GN7391; Table 5): 6.25 µg/mL; MIC (C. freundii GN7391; Table 6): 6.25 µg/mL; MIC (P. cepacia OF189; Table 5): < 0.006 µg/mL; MIC (E. coli ML4707; Table 5): < 0.006 µg/mL |
| CC(=O)Oc1ccc(C(=O)NNC(=O)C(C)(C)ON=C(C(=O)NC2C(=O)N3C(C(=O)O)=C(CSc4cc(C)nc5nc(C(F)(F)F)nn45)CS[C@H]23)c2csc(N)n2)cc1OC(C)=O (stereo partly drawn) [Example 48, 7-{2-[2-Amino-1,3-thiazol-4-yl]-2-[1-(3-(3,4-diacetoxybenzoyl)carbazoyl)-1-methylethoxyimino]acetamido}-3-[(5-methyl-2-trifluoromethyl-s-triazolo[1,5-a]pyrimidin-7-yl)-thiomethyl]-3-cephem-4-carboxylic acid] | 0.78 µg/mL (≈ 0.833 µM) | 1.56 µg/mL (≈ 1.67 µM) | 12.5 µg/mL (≈ 13.4 µM) | 12.5 µg/mL (≈ 13.4 µM) | 12.5 µg/mL (≈ 13.4 µM) | 3.13 µg/mL (≈ 3.34 µM) | 12.5 µg/mL (≈ 13.4 µM) | 0.78 µg/mL (≈ 0.833 µM) | 25 µg/mL (≈ 26.7 µM) | 50 µg/mL (≈ 53.4 µM) | 0.78 µg/mL (≈ 0.833 µM) | 0.1 µg/mL (≈ 0.107 µM) | 1.56 µg/mL (≈ 1.67 µM) | 12.5 µg/mL (≈ 13.4 µM) | 3.13 µg/mL (≈ 3.34 µM) | 0.78 µg/mL (≈ 0.833 µM) | 0.05 µg/mL (≈ 0.0534 µM) | 6.25 µg/mL (≈ 6.68 µM) | 12.5 µg/mL (≈ 13.4 µM) | 50 µg/mL (≈ 53.4 µM) | MIC (S. aureus IAA498; Table 7): 12.5 µg/mL (≈ 13.4 µM); MIC (S. marcescens GN10857; Table 7): 12.5 µg/mL (≈ 13.4 µM); MIC (P. aeruginosa 4au542; Table 7): 1.56 µg/mL (≈ 1.67 µM); MIC (C. freundii GN7391; Table 7): 12.5 µg/mL (≈ 13.4 µM); MIC (P. cepacia OF189; Table 7): < 0.006 µg/mL; MIC (E. coli ML4707; Table 7): 0.1 µg/mL (≈ 0.107 µM) |
| Cc1cc(SCC2=C(C(=O)O)N3C(=O)C(NC(=O)C(=NOC(C)(C)C(=O)NNC(=O)c4ccc(O)c(O)c4)c4csc(N)n4)[C@H]3SC2)n2nccc2n1 (stereo partly drawn) [Example 58, 7-{2-[2-Amino-1,3-thiazol-4-yl]-2-[1-(3-(3,4-dihydroxybenzoyl)carbazoyl)-1-methylethoxyimino]acetamido}-3-[(5-methylpyrazolo[1,5-a]pyrimidin-7-yl)thiomethyl]-3-cephem-4-carboxylic acid] | 0.39 µg/mL (≈ 0.498 µM) | 0.1 µg/mL (≈ 0.128 µM) | 3.13 µg/mL (≈ 4 µM) | 1.56 µg/mL (≈ 1.99 µM) | 3.13 µg/mL (≈ 4 µM) | 1.56 µg/mL (≈ 1.99 µM) | 1.56 µg/mL (≈ 1.99 µM) | 0.39 µg/mL (≈ 0.498 µM) | 1.56 µg/mL (≈ 1.99 µM) | 6.25 µg/mL (≈ 7.98 µM) | 0.1 µg/mL (≈ 0.128 µM) | 0.012 µg/mL (≈ 0.0153 µM) | 0.39 µg/mL (≈ 0.498 µM) | 1.56 µg/mL (≈ 1.99 µM) | 0.39 µg/mL (≈ 0.498 µM) | 0.05 µg/mL (≈ 0.0639 µM) | < 0.006 µg/mL | 1.56 µg/mL (≈ 1.99 µM) | 1.56 µg/mL (≈ 1.99 µM) | 6.25 µg/mL (≈ 7.98 µM) | MIC (S. aureus IAA498; Table 7): 3.13 µg/mL (≈ 4 µM); MIC (S. marcescens GN10857; Table 7): 1.56 µg/mL (≈ 1.99 µM); MIC (P. aeruginosa 4au542; Table 7): 0.2 µg/mL (≈ 0.255 µM); MIC (C. freundii GN7391; Table 7): 3.13 µg/mL (≈ 4 µM); MIC (P. cepacia OF189; Table 7): 0.012 µg/mL (≈ 0.0153 µM); MIC (E. coli ML4707; Table 7): < 0.006 µg/mL |
| Cc1cc(O)c(C(=O)N[C@@H](C(=O)N[C@@H]2C(=O)N3C(C(=O)O)=C(CSc4nnnn4C)CS[C@H]23)c2ccc(O)cc2)cn1 [Cefpiramide, cefpiramide, reference compound] | – | – | – | – | – | – | – | – | – | – | – | – | – | – | – | – | – | – | – | – | half-life (in vivo): 2.5 h |
| CC(=O)Oc1ccc(C(=O)NNC(=O)C(C)(C)ON=C(C(=O)NC2C(=O)N3C(C(=O)O)=C(CSc4cc(C)nc5c(C(=O)O)cnn45)CSC23)c2csc(N)n2)cc1OC(C)=O (stereo not drawn) [Example 53, 7-{2-[2-amino-1,3-thiazol-4-yl]-2-[1-(3-(3,4-diacetoxybenzoyl)carbazoyl)-1-methylethoxyimino]acetamido}-3-[(3-carboxy-5-methylpyrazolo[1,5-a]pyrimidin-7-yl)thiomethyl-3-cephem-4-carboxylic acid sodium salt] | 0.78 µg/mL | 0.1 µg/mL | 0.78 µg/mL | 3.13 µg/mL | 3.13 µg/mL | 1.56 µg/mL | 1.56 µg/mL | 0.78 µg/mL | 0.78 µg/mL | 6.25 µg/mL | 0.05 µg/mL | 0.012 µg/mL | 0.39 µg/mL | 0.78 µg/mL | 0.78 µg/mL | 0.1 µg/mL | 0.012 µg/mL | 12.5 µg/mL | 0.78 µg/mL | 12.5 µg/mL | MIC (S. aureus IAA498; Table 7): 12.5 µg/mL; MIC (S. marcescens GN10857; Table 7): 0.78 µg/mL; MIC (P. aeruginosa 4au542; Table 7): 0.05 µg/mL; MIC (C. freundii GN7391; Table 7): 6.25 µg/mL; MIC (P. cepacia OF189; Table 7): < 0.006 µg/mL; MIC (E. coli ML4707; Table 7): 0.012 µg/mL |
